Assay results taken from PMC11212140, “Molecular Bidents with Two Electrophilic Warheads as a New Pharmacological Modality” (ACS Central Science, 2024).

Key:
Experiment in all cases: KiNativ profiling in H3255 cells
Assay type in all cases: cell-based, human
MARK2 = tested on: T1, MARK2; conditions: 2.5 µM; Lys1; EVAVKIIDKTQLNSSSLQK
T1 construct: purchased ActivX Biosciences (KiNativ)
Procedure: (§1) treatment. Cell viability was determined by using CellTiter-Glo (Promega #G7571) according to the manufacturer’s instructions, measuring luminescence using an Envision plate-reader (PerkinElmer Inc.). Dose-response curves were generated using non-linear regression curve fit in GraphPad Prism 9.2.0(GraphPad Software).
(§2) Cellular target engagement assays
(§3) After 6 hours treatment, cells were pelleted, washed with PBS once and lysed with IP lysis buffer (25mMTris-HCl pH 7.4, 150mM NaCl, 1 mM EDTA, 1% NP-40 and 5% glycerol) (Thermo Fisher Scientific, Cat#87788) containing protease/phosphatase inhibitor cocktail (Roche). The protein concentrations were measured by BCA analysis (Pierce). Cell lysates were incubated with 1 μM of biotin conjugated probe (bio-Osimertinib or bio-ZNL-0013) at 4 ℃ overnight, and incubated for 3 more hours at room temperature. Lysates with probe were then incubated with streptavidin beads (Thermo Fisher, #20349) for 2 hours at 4 ℃. The protein-probe complexes on the beads were then subjected to immunoblotting.
(§4) H3255 cells were plated with 6.5x10^6 per condition in fresh media in 15 cm plates and treated the 80% confluency for 2 hours with DMSO or 2.5 μM of ZNL-0056. To harvest cells, plates were washed 3 times with cold PBS, then collected by scraping into 4 mL of cold PBS containing protease and phosphatase inhibitors. Cells were pelleted by centrifugation at 1350 g at 4 ℃ for 5 minutes and immediately frozen in liquid nitrogen. The frozen samples were sent to ActivX Biosciences (La Jolla, CA) for the remainder of the KiNativ profiling experiment4.
(§5) Protein expression and purification
(§6) Human EGFR kinase domain (residues 696-1022) with T790M and V948R mutations was cloned with an N-terminal, protease cleavable His -GST tag. Recombinant protein was expressed in SF9 insect cells using baculovirus generated from the pFastBac system (Thermo Fisher) .
(§7) Briefly, cells at a density of ~2x10^6 cells/mL were infected with 1% (v/v) virus stock and grown for ~72 hours before harvesting and freezing the cell pellet . Infected cells were lysed in buffer A (50 mM Tris pH 8.0, 500 mM NaCl, 5% glycerol, 0.5 mM Tris(2-carboxyethyl)phosphine [TCEP]), ultracentrifuged at >200,000 rcf for 1 h, and the supernatant flo wed through Ni-NTA resin by gravity. The resin was washed with buffer A supplemented with 40 mM imidazole by […]

MAP3K4 = tested on: T2, MAP3K4; conditions: 2.5 µM
T2 construct: purchased ActivX Biosciences (KiNativ)
Procedure: as §1, §2, §3, §4, §5, §6, §7

DGKA = tested on: T3, DGKA; conditions: 2.5 µM; ATP; IDPVPNTHPLLVFVNPKSGGK
T3 construct: purchased ActivX Biosciences (KiNativ)
Procedure: as §1, §2, §3, §4, §5, §6, §7

GSK3A = tested on: T4, GSK3A; conditions: 2.5 µM; Lys2; DIKPQNLLVDPDTAVLK
T4 construct: purchased ActivX Biosciences (KiNativ)
Procedure: as §1, §2, §3, §4, §5, §6, §7

VRK2 = tested on: T5, VRK2; conditions: 2.5 µM; Lys2; MLDVLEYIHENEYVHGDIKAANLLLGYK
T5 construct: purchased ActivX Biosciences (KiNativ)
Procedure: as §1, §2, §3, §4, §5, §6, §7

PKD3 = tested on: T6, PKD3; conditions: 2.5 µM
T6 construct: purchased ActivX Biosciences (KiNativ)
Procedure: as §1, §2, §3, §4, §5, §6, §7

CaMK2d = tested on: T7, CaMK2d; conditions: 2.5 µM; Lys1; IPTGQEYAAKIINTKK
T7 construct: purchased ActivX Biosciences (KiNativ)
Procedure: as §1, §2, §3, §4, §5, §6, §7

MAP2K7 = tested on: T8, MAP2K7; conditions: 2.5 µM; Lys2; DVKPSNILLDER
T8 construct: purchased ActivX Biosciences (KiNativ)
Procedure: as §1, §2, §3, §4, §5, §6, §7

CCRK = tested on: T9, CCRK; conditions: 2.5 µM; Lys2; DLKPANLLISASGQLK
T9 construct: purchased ActivX Biosciences (KiNativ)
Procedure: as §1, §2, §3, §4, §5, §6, §7

PKN1 = tested on: T10, PKN1; conditions: 2.5 µM; Lys1; VLLSEFRPSGELFAIKALK
T10 construct: purchased ActivX Biosciences (KiNativ)
Procedure: as §1, §2, §3, §4, §5, §6, §7

MAP3K3 = tested on: T11, MAP3K3; conditions: 2.5 µM; Lys1; ELASKQVQFDPDSPETSKEVSALECEIQLLK
T11 construct: purchased ActivX Biosciences (KiNativ)
Procedure: as §1, §2, §3, §4, §5, §6, §7

FRK = tested on: T12, FRK; conditions: 2.5 µM
T12 construct: purchased ActivX Biosciences (KiNativ)
Procedure: as §1, §2, §3, §4, §5, §6, §7

AKT1 = tested on: T13, AKT1; conditions: 2.5 µM; ATP Loop; GTFGKVILVK
T13 construct: purchased ActivX Biosciences (KiNativ)
Procedure: as §1, §2, §3, §4, §5, §6, §7

PKCa, PKCg = conditions: 2.5 µM; Other; NLIPMDPNGLSDPYVKLK
Procedure: as §1, §2, §3, §4, §5, §6, §7

STLK6 = tested on: T14, STLK6; conditions: 2.5 µM; Lys1; HTPTGTLVTIKITNLENCNEER
T14 construct: purchased ActivX Biosciences (KiNativ)
Procedure: as §1, §2, §3, §4, §5, §6, §7

GCK = tested on: T15, GCK; conditions: 2.5 µM
T15 construct: purchased ActivX Biosciences (KiNativ)
Procedure: as §1, §2, §3, §4, §5, §6, §7

EGFR, EGFR-L858R = tested on: T16, EGFR, EGFR-L858R; conditions: 2.5 µM
T16 construct: purchased ActivX Biosciences (KiNativ)
Procedure: as §1, §2, §3, §4, §5, §6, §7

PIK3CB = tested on: T17, PIK3CB; conditions: 2.5 µM; ATP; VFGEDSVGVIFKNGDDLRQDMLTLQMLR
T17 construct: purchased ActivX Biosciences (KiNativ)
Procedure: as §1, §2, §3, §4, §5, §6, §7

AurA, AurB, AurC = conditions: 2.5 µM; ATP Loop; GKFGNVYLAR
Procedure: as §1, §2, §3, §4, §5, §6, §7

DRAK1, DRAK2 = conditions: 2.5 µM; ATP Loop; GKFAVVR
Procedure: as §1, §2, §3, §4, §5, §6, §7

NEK2 = tested on: T18, NEK2; conditions: 2.5 µM; Lys2; DLKPANVFLDGK
T18 construct: purchased ActivX Biosciences (KiNativ)
Procedure: as §1, §2, §3, §4, §5, §6, §7

HER2/ErbB2 = tested on: T19, HER2/ErbB2; conditions: 2.5 µM
T19 construct: purchased ActivX Biosciences (KiNativ)
Procedure: as §1, §2, §3, §4, §5, §6, §7

RSK1 domain2 = tested on: T20, RSK1 domain2; conditions: 2.5 µM; Lys2; DLKPSNILYVDESGNPECLR
T20 construct: RSK1 domain2; purchased ActivX Biosciences (KiNativ)
Procedure: as §1, §2, §3, §4, §5, §6, §7

[1] = Lys1, LGSGQFGEVWEGLWNNTTPVAVKTLKPGSMDPNDFLR
[2] = Activation Loop, LLDIDETEYHADGGKVPIK

Row | SMILES | Inhibition (MARK2) | Inhibition (MAP3K4; Lys1, VYTCISVDTGELMAMKEIR) | Inhibition (MAP3K4; Lys2, DIKGANIFLTSSGLIK) | Inhibition (DGKA) | Inhibition (GSK3A) | Inhibition (VRK2) | Inhibition (PKD3; Lys1, DVAIKVIDK) | Inhibition (PKD3; Lys2, NIVHCDLKPENVLLASAEPFPQVK) | Inhibition (CaMK2d) | Inhibition (MAP2K7) | Inhibition (CCRK) | Inhibition (PKN1) | Inhibition (MAP3K3) | Inhibition (FRK; Activation Loop, HEIKLPVK) | Inhibition (FRK; [1]) | Inhibition (AKT1) | Inhibition (PKCa, PKCg) | Inhibition (STLK6) | Inhibition (GCK; Lys1, DTVTSELAAVKIVK) | Inhibition (GCK; Lys2, DIKGANLLLTLQGDVK) | other results
1 | C=CC(=O)Nc1cc(Nc2nccc(-c3cn(C)c4ccccc34)n2)c(OC)cc1N(C)CCN(C)C [Osimertinib, osimertinib, reference compound] | 7.8% | 0.9% | -3.4% | -5.7% | -5.2% | 6.4% | -11.4% | -11.6% | -3.1% | -1.4% | 16.1% | -12.2% | 10.8% | -27.9% | 12.8% | -19.5% | -21.6% | 12.6% | -23.8% | 15.4% | Inhibition (EGFR, EGFR-L858R; Activation Loop, […]): 90.8%; Inhibition (EGFR, EGFR-L858R; Lys1, IPVAIKELR): 96.8%; Inhibition (PIK3CB): -1.4%; Inhibition (AurA, AurB, AurC): 20.5%; Inhibition (DRAK1, DRAK2): 13.6%; Inhibition (NEK2): -4.3%; Inhibition (HER2/ErbB2; [2]): 82.4%; Inhibition (HER2/ErbB2; Lys1, GIWIPDGENVKIPVAIKVLR): 89.1%; Inhibition (RSK1 domain2): -13.9%
2 | C=CC(=O)Nc1cc(C(=O)Nc2nc3cccc(C)c3n2[C@@H]2CCCCN(C(=O)C=C)C2)cs1 [ZNL-0056] | 25.2% | 16.4% | -19.0% | 14.0% | 11.5% | 7.9% | -14.1% | 3.5% | -4.1% | 90.7% | 2.1% | 8.5% | -6.3% | -77.6% | 7.6% | -1.6% | -17.5% | 16.7% | -6.8% | 0.9% | Inhibition (EGFR, EGFR-L858R; Activation Loop, LLGAEEKEYHAEGGKVPIK): 83.2%; Inhibition (EGFR, EGFR-L858R; Lys1, IPVAIKELR): 94.3%; Inhibition (PIK3CB): -22.3%; Inhibition (AurA, AurB, AurC): 2.2%; Inhibition (DRAK1, DRAK2): 46.6%; Inhibition (NEK2): -9.4%; Inhibition (HER2/ErbB2; [2]): 65.9%; Inhibition (HER2/ErbB2; Lys1, GIWIPDGENVKIPVAIKVLR): 60.7%; Inhibition (RSK1 domain2): 11.8%
